Data reported in US12492187B2, “Factor XI activation inhibitors” (Merck Sharp & Dohme LLC, priority 2020, dated 2025).

Biological target: T1, Human coagulation factor (F)XI (Homo sapiens, UniProt P03951)
T1 construct: purchased Haematologic Technologies Inc. (FXI); Enzyme Research Laboratories (FXIIa) HCXI-150 (FXI); HFXIIa (FXIIa)
Assay: Inhibition of FXIIa mediated activation of FXI (activation of human Factor XI to XIa by human Factor α-XIIa)
Assay type: biochemical
Settings: human FXI pre-incubated with compound 30 min at 22° C., activation by human FXIIa 60 min, z-GPR-AFC substrate, fluorescence 405/510 nm, 4 parameter logistic fit; read-out: Inhibition of FXIIa meditated activation of FXI
Method: Inhibition of FXIIa Mediated Activation of FXI
Activation of Human Factor XI to XIa by Human Factor α-XIIa
Assay was performed in 50 mM HEPES, 150 mM NaCl, 5 mM CaCl2, 0.1% PEG-8000, pH 7.4 buffer in black, flat-bottom, polystyrene microplates (Corning, Cat #3573). Serial dilutions (10-point, 3.333-fold) of the test compounds delivered as 10 mM DMSO stocks were prepared in the Labcyte Echo-qualified PP 384 well microplates (Labcyte, Cat #P-05525). Human coagulation factor (F)XI (Haematologic Technologies Inc., Cat #HCXI-150, concentration 46 nM, 19.5 uL) was pre-incubated with 0.5 uL of the test compounds for 30 min at 22° C. The activation was initiated by addition of 10 uL of human coagulation factor (F)XIIa (Enzyme Research Laboratories, Cat #HFXIIa, concentration 30 nM) and reaction proceeded for 60 min at 22° C., after which it was quenched by addition of a selective inhibitor of FXIIa (Compound 54 in WO2018093695) concentration 600 uM in DMSO, 1 uL). 10 min after the quench, 29 uL of z-GPR-AFC substrate (Sigma, Cat #C0980-10MG, concentration 200 uM) was added into each well and the detection reaction proceeded for 60 min at 22° C. Fluorescence at 405/510 nm was measured in end-point mode using an Envision plate-reader (Perkin Elmer). IDBS Activity Base XE (ABase) analysis using 4 parameter logistic fit was performed to determine Minimum, Maximum, EC50, and Slope Factor for each compound.

T1 sequence (P03951 19-625): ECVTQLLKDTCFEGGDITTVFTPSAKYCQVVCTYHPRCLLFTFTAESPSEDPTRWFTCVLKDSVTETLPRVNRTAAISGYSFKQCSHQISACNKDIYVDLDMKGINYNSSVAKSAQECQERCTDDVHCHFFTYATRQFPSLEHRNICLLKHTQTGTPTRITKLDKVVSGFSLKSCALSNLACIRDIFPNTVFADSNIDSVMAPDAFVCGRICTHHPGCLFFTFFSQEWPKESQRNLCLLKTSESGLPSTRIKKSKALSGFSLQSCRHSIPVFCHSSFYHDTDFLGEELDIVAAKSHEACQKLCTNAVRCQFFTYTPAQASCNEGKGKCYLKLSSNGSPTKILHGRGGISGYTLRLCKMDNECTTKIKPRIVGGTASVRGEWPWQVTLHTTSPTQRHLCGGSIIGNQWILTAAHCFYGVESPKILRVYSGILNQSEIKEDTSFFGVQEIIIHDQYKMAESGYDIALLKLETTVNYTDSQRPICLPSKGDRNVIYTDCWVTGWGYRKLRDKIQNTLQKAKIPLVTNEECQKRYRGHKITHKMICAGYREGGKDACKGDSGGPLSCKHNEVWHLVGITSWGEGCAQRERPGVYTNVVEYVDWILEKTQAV

SMILES | EC50
Cc1nc(C(=O)N2CCC(C#N)(c3ccccc3)CC2)cc(C(=O)N2CCC(N3CCC(F)(F)C3)CC2)c1C [Example 26, 1-[4-[4-(3,3-difluoropyrrolidin-1-ium-1-yl)piperidine-1-carbonyl]-5,6-dimethyl-pyridine-2-carbonyl]-4-phenyl-piperidine-4-carbonitrile; 2,2,2-trifluoroacetate] | 105 nM
Cc1nc(C(=O)N2CCC(C#N)(c3ccccc3)CC2)cc(C(=O)N2CCC(Cc3nccs3)CC2)c1C [Example 28, 1-[5,6-dimethyl-4-[4-(thiazol-2-ylmethyl)piperidine-1-carbonyl]pyridine-2-carbonyl]-4-phenyl-piperidine-4-carbonitrile] | 62.2 nM
Cc1nc(C(=O)N2CCC(C#N)(c3ccccc3)CC2)cc(C(=O)N2CCN(C3(c4ccccc4)CC3)CC2)c1C [Example 29, 1-[5,6-dimethyl-4-[4-(1-phenylcyclopropyl)piperazine-1-carbonyl]pyridine-2-carbonyl]-4-phenyl-piperidine-4-carbonitrile] | 41.1 nM
Cc1nc(C(=O)N2CCC(C#N)(c3ccccc3)CC2)cc(C(=O)N2CCC(Cc3ccccc3)CC2)c1C [Example 30, 1-[4-(4-benzylpiperidine-1-carbonyl)-5,6-dimethyl-pyridine-2-carbonyl]-4-phenyl-piperidine-4-carbonitrile] | 47.8 nM
Cc1nc(C(=O)N2CCC(C#N)(c3ccccc3)CC2)cc(C(=O)N2CCC(C)(c3ccccc3)CC2)c1C [Example 31, 1-[5,6-dimethyl-4-(4-methyl-4-phenyl-piperidine-1-carbonyl)pyridine-2-carbonyl]-4-phenyl-piperidine-4-carbonitrile] | 124 nM

More lines, in order of falling EC50, values ahead:

EC50 | SMILES
36.6 nM | Cc1nc(C(=O)N2CCC(C#N)(c3ccccc3)CC2)cc(C(=O)N2CCC(c3ccccc3)CC2)c1C [Example 32, 1-[5,6-dimethyl-4-(4-phenylpiperidine-1-carbonyl)pyridine-2-carbonyl]-4-phenyl-piperidine-4-carbonitrile]
25.1 nM | Cc1nc(C(=O)N2CCC(C#N)(c3ccccc3)CC2)cc(C(=O)N2CCC(C(C)(C)C)CC2)c1C [Example 27, 1-[4-(4-tert-butylpiperidine-1-carbonyl)-5,6-dimethyl-pyridine-2-carbonyl] -4-phenyl-piperidine-4-carbonitrile]
